Data reported in patent publication EP0346132A1, “Pharmaceutical products” (priority 1988, dated 1989).
Converted amounts (≈) assume the structure as drawn. “Also recorded” adds a separate entry of the source. Where two headings read alike, the source gives them in different places.

Legend:
[1] = test system: HIV; experiment: Anti-HIV assay (protection of infected cells, XTT microculture tetrazolium assay); assay type: cell-based; details: for inhibit the infection and killing of human T lymphocytes (Th cells) by HIV / activity against HIV: statement in words; for activity against HIV: in vitro
Text: (§1) Compound 14a was screened for anti-HIV activity at the National Cancer Institute, Frederick Cancer Research Facility, Frederick, Maryland (FCRF). The screening mode operational procedures utilized at FCRF are set forth in detail in U.S. patent application Serial No. 07/146,252, filed January 20, 1988, the disclosure of which is incorporated by reference herein.
(§2) Figure 2 depicts a plot of the percentage of test cells over uninfected cells (%) for both infected and uninfected cells as a function of the increasing concentration of compound 14a.
(§3) The data plotted on Figure 2 permit the calculation of an effective concentration (EC₅₀) with respect to infected cells of about 0.15 µg/ml, an inhibitory concentration (IC₅₀) with respect to normal cells of about 100 µg/ml, and a therapeutic index (TI₅₀) of about 667. An earlier assay carried out at the Southern Research Institute yielded a TI₅₀ of about 200 when MT-2 cells were cultured with H9/HTLV-IIIB.
The following are the current screening mode operational procedures utilized at Southern Research Institute, Birmingham, AL. The procedure consists of 3 operations: 1) preparation of infected cells and distribution of the test plates; 2) preparation of drug dilution plates and distribution to the test plates; and 3) XTT assay procedure.
(§4) Cells to be treated in 50 ml conical centrifuge tubes for 30 minutes with 1-2 µg/ml of polybrene at 37°C, and pelleted (8 min., 1200 RPM). Virus is added [in RMPI-1640, 10% fetal calf serum (FCS), with interleukin-2 (IL-2) (for ATH8 cells), and antibiotics] to provide an MOI of approximately 0.01. An MOI of 0.01 is obtained by adding 10³ infectious units of virus to 10⁵ cells. Medium alone is added to virus-free control cells. The treated or control cells are incubated for 1 hour at 37°C in 5% CO₂ in air. Infected or uninfected cells are diluted to give 1 x 10⁴ cells/100 µl (2 x 10⁴ cells/100 µl for ATH8 cells). Infected or uninfected cells (100 µl) are distributed to appropriate wells of a 96 well, U-bottom, microtiter plate. Each compound dilution is tested in duplicate with infected cells. Uninfected cells are examined for drug sensitivity in a single well for each dilution of compound. Drug free control cells, infected and uninfected, are run in triplicate in wells B3 through D3 and E3 through G3, respectively. Wells A4 through A11 and H4 through H11 are drug blanks and get medium alone at this point. The plates are then incubated at 37°C in 5% CO₂ until ready for drug addition.
The first dilution of each drug is made in a test tube according to the dilution specified hereinbelow. The remaining dilutions are made in 96-well plates. All wells of each plate are filled with 225 µl of medium using a Cetus liquid handling system programed according to the plate filling worksheet. Twenty-five microliters (25 µl) of 2 diluted compounds are manually added to row 11 of a filled dilution plate in the same order in which the drugs will appear on the test plate. The two compounds are then serially diluted 10 fold from row 11 through row 4, using the Cetus liquid handling system, preprogramed with the serial dilution file worksheet.
Using a multi-channel pipettor with […], 100 µl of each drug dilution is transferred to the test plate; 100 µl from wells A4 through H4 of the dilution plate to the same wells of the test plate. Wells B3 through G3 and B2 through G2 receive medium alone.
Test plates are incubated at 37°C in 5% CO₂ in air for 7 days or until virus control cells are lysed as determined microscopically.
An XTT-PMS solution is prepared immediately prior to its addition to the wells of the culture dish [1 mg/ml XTT; 2,3-bis(2-methoxy-4-nitro-5-sulfophenyl)-5-(phenylamino)carbonyl-2H-tetrazolium hydroxide solution in media without FCS]. The stock PMS (phenazine methosulfate (15.3 mg PMS/ml FBS)) solution is diluted 1:100 (0.153 mg/ml). […]

[2] = test system: P-388 Leukemia Cells; experiment: P-388 mouse leukemia cell culture cytotoxicity assay; assay type: cell-based; details: P388, inhibitory (cytotoxicity) concentration for P-388 leukemia cells in culture, read-out: ED₅₀
Text: The ED₅₀ cytotoxicity concentrations determined for analogs 7a, 9a, 10a, 16a, and 17a in the P-388 mouse leukemia cell culture assay are given in Table II.

[3] = Anti-HIV assay, toxicity to uninfected (normal) cells, MT-2; assay type: cell-based; details: human, mt-2 cells, ID₅₀
Text: as §1, §2, §3, §4

[4] = test system: MT-2; experiment: as above; assay type: cell-based; details: Homo sapiens, MT2; Figure 2; screened at FCRF; normal cells; read-out: inhibitory concentration (IC₅₀) with respect to normal cells
Text: as §1, §2, §3, §4

[5] = Anti-HIV assay, toxicity to uninfected (normal) cells, ATH-8; assay type: cell-based; details: human, ath-8 cells; first ID₅₀ column (c2); Cell Line ATH-8
Text: as §1, §3
(§5) Cells to be treated in 50 ml conical centrifuge tubes for 30 minutes with 1-2 µg/ml of polybrene at 37°C, and pelleted (8 min., 1200 RPM). Virus is added [in RMPI-1640, 10% fetal calf serum (FCS), with interleukin-2 (IL-2) (for ATH8 cells), and antibiotics] to provide an MOI of approximately 0.01. An MOI of 0.01 is obtained by adding 10³ infectious units of virus to 10⁵ cells. Medium alone is added to virus-free control cells. The treated or control cells are incubated for 1 hour at 37°C in 5% CO₂ in air. […] The plates are then incubated at 37°C in 5% CO₂ until ready for drug addition.

[6] = test system: HSV-1; experiment: Activity against Herpes Simplex Virus Type 1; details: statement in words
[7] = Anti-HIV assay, toxicity to uninfected (normal) cells, MT-2C; assay type: cell-based; details: human, mt-2c cells
Text: as §1, §3, §5

[8] = Anti-HIV assay, toxicity to uninfected (normal) cells, CEM-C; assay type: cell-based; details: human, first ID₅₀ column (c2), Cell Line CEM-C
Text: as §1, §3, §5

[9] = test system: HIV; details: background and literature; statement in words; cited from earlier work
[10] = test system: HIV; details: early clinical trials; statement in words; cited from earlier work
[11] = Human immunodeficiency virus 1, Cell Line MT-2, read-out: ED₅₀
[12] = Human immunodeficiency virus 1, Cell Line MT-2C, read-out: ED₅₀

CC(=O)OC[C@@H]1C=C[C@H](n2cnc3c(=O)[nH]c(N)nc32)C1 (racemic) [1α-acetate ester of 14a, (1α,2α)-4-(2-Amino-6-hydroxy-9H-purin-9-yl)-2-cyclopentenyl Acetoxycarbinol]
inhibition at 6 µg/mL ([1]; Human immunodeficiency virus 1, against HIV at 6 µg/ml): 28%

Nc1c(Cl)ncnc1N[C@H]1C=C[C@@H](CO)C1 (racemic) [Compound 3a, (±)-(1α,4α)-4-[(5-Amino-6-chloro-4-pyrimidinyl)-amino]-2-cyclopentenylcarbinol]
inhibit the infection and killing of human T lymphocytes (Th cells) by HIV [1]: effective

Nc1c(Cl)ncnc1N[C@H]1CC[C@@H](CO)C1 (racemic) [Compound 3b]
inhibit the infection and killing of human T lymphocytes (Th cells) by HIV [1]: effective

Nc1nc(Cl)cc(N[C@H]2C=C[C@@H](CO)C2)n1 (racemic) [Compound 4a, (±)-(1α,4α)-4-[(2-Amino-6-chloro-4-pyrimidinyl)-amino]-2-cyclopentenylcarbinol]
inhibit the infection and killing of human T lymphocytes (Th cells) by HIV [1]: effective

Nc1nc(Cl)cc(N[C@H]2CC[C@@H](CO)C2)n1 (racemic) [Compound 4b]
inhibit the infection and killing of human T lymphocytes (Th cells) by HIV [1]: effective

Nc1nc(Cl)c(N=Nc2ccc(Cl)cc2)c(N[C@H]2C=C[C@@H](CO)C2)n1 (racemic) [Compound 5a, (±)-(1α,4α)-4-{[2-Amino-6-chloro-5-(4-chlorophenyl)-azo]-4-pyrimidinyl]-amino}-2-cyclopentenylcarbinol]
inhibit the infection and killing of human T lymphocytes (Th cells) by HIV [1]: effective

Nc1nc(Cl)c(N)c(N[C@H]2C=C[C@@H](CO)C2)n1 (racemic) [Compound 6a, (±)-(1α,4α)-4-[(2,5-Diamino-6-chloro-4-pyrimidinylamino]-2 cyclopentenylcarbinol]
inhibit the infection and killing of human T lymphocytes (Th cells) by HIV [1]: effective

OC[C@@H]1C=C[C@H](n2cnc3c(Cl)ncnc32)C1 (racemic) [Compound 7a, (±)-(1α,4α)-4-(6-chloro-9H-purin-9-yl)-2-cyclopentenylcarbinol]
IC50 [2]: 12 µg/mL (≈ 47.9 µM) | activity against HIV [1]: active | inhibit the infection and killing of human T lymphocytes (Th cells) by HIV [1]: effective | CC50 [3]: 58.5 µg/mL (≈ 233 µM)

O=c1[nH]cnc2c1ncn2[C@H]1C=C[C@@H](CO)C1 (racemic) [Compound 8a, (±)-(1α,4α)-4-(6-Hydroxy-9H-purin-9-yl)-2-cyclopentenylcarbinol]
inhibit the infection and killing of human T lymphocytes (Th cells) by HIV [1]: effective

Nc1ncnc2c1ncn2[C@H]1C=C[C@@H](CO)C1 (racemic) [Compound 9a, (±)-(1α,4α)-4-(6-Amino-9H-purin-9-yl)-2-cyclopentenylcarbinol]
IC50 [2]: 40 µg/mL (≈ 173 µM) | EC50 [1, 11]: 2.3 µg/mL (≈ 9.95 µM) | activity against HIV [1]: active | inhibit the infection and killing of human T lymphocytes (Th cells) by HIV [1]: effective | CC50 [3]: 50 µg/mL (≈ 216 µM)

OC[C@@H]1C=C[C@H](n2cnc3c(S)ncnc32)C1 (racemic) [Compound 10a, (±)-(1α,4α)-4-(6-Mercapto-9H-purin-9-yl)-2-cyclopentenylcarbinol]
IC50 [2]: 3 µg/mL (≈ 12.1 µM) | activity against HIV [1]: active | inhibit the infection and killing of human T lymphocytes (Th cells) by HIV [1]: effective | CC50 [3]: 7.33 µg/mL (≈ 29.5 µM)

Nc1nc(Cl)c2ncn([C@H]3C=C[C@@H](CO)C3)c2n1 (racemic) [Compound 13a, (±)-(1α,4α)-4-(2-Amino-6-chloro-9H-purin-9-yl)-2-cyclopentenyl carbinol]
EC50 [1, 11]: 0.41 µg/mL (≈ 1.54 µM) | activity against HIV [1]: active | inhibit the infection and killing of human T lymphocytes (Th cells) by HIV [1]: effective | CC50 [3]: 6.97 µg/mL (≈ 26.2 µM)

Nc1nc2c(ncn2[C@H]2C=C[C@@H](CO)C2)c(=O)[nH]1 (racemic) [Compound 14a, (±)-(1α,4α)-4-(2-Amino-6-hydroxy-9H-purin-9-yl)-2-cyclopentenyl carbinol]
therapeutic index (TI₅₀) ([1]; Figure 2, screened at FCRF): about 667 | EC50 ([1]; Human immunodeficiency virus 1, ATH-8, Cell Line ATH-8, read-out: ED₅₀): 0.2 µg/mL (≈ 0.809 µM) | EC50 ([1]; Human immunodeficiency virus 1, Figure 2, screened at FCRF, read-out: effective concentration (EC₅₀) with respect to infected cells): ~0.15 µg/mL (≈ 0.607 µM) | TI₅₀ ([1]; earlier assay at Southern Research Institute, MT-2 cells cultured with H9/HTLV-IIIB): about 200 | activity against HIV [1]: strongly inhibits HIV infectivity in vitro | inhibit the infection and killing of human T lymphocytes (Th cells) by HIV [1]: effective | IC50 [4]: ~100 µg/mL (≈ 404 µM) | CC50 [5]: 55.3 µg/mL (≈ 224 µM) | active against HSV-1 [6]: active

Nc1nc(N)c2ncn([C@H]3C=C[C@@H](CO)C3)c2n1 (racemic) [Compound 15a, (±)-(1α,4α)-4-(2,6-Diamino-9H-purin-9-yl)-2-cyclopentenylcarbinol]
EC50 [1, 12]: 1.9 µg/mL (≈ 7.71 µM) | activity against HIV [1]: active | inhibit the infection and killing of human T lymphocytes (Th cells) by HIV [1]: effective | CC50 [7]: > 125 µg/mL

Nc1nc(Cl)c2nnn([C@H]3C=C[C@@H](CO)C3)c2n1 (racemic) [Compound 16a]
IC50 [2]: 1 µg/mL (≈ 3.75 µM)

Nc1nc2c(nnn2[C@H]2C=C[C@@H](CO)C2)c(=O)[nH]1 (racemic) [Compound 17a]
IC50 [2]: 4.5 µg/mL (≈ 18.1 µM)

Nc1nc(O)c2ncn([C@H]3C=C[C@@H](CO)C3)c2n1 [(-)14a, (1S,4R)-4-(2-Amino-6-hydroxy-9H-Purin-9-yl)-2-cyclopentenyl Carbinol]
EC50 [1, 12]: 0.325 µg/mL (≈ 1.31 µM) | activity against HIV [1]: highly active | CC50 [8]: 189 µg/mL (≈ 764 µM) | CC50 ([7]; first ID₅₀ column (c2), Cell Line MT-2C, read-out: ID₅₀): 135 µg/mL (≈ 546 µM)

[N-]=[N+]=N[C@H]1C[C@H](n2ccc(=O)[nH]c2=O)O[C@@H]1CO [CS-87, 3′-azido-2′,3′-dideoxyuridine]
activity against HIV in vitro [9]: significant activity against HIV in vitro; also recorded: significantly inhibit HIV replication in vitro

NC(=O)c1ncn([C@@H]2O[C@H](CO)[C@@H](O)[C@H]2O)n1 [Ribavirin, 1-β-D-Ribofuranosyl-1H-1,2,4-triazole-3-carboxamide]
effect in AIDS patients [10]: inhibited viral replication

Cc1cn([C@H]2C=C[C@@H](CO)O2)c(=O)[nH]c1=O [d4T, 2′,3′-dideoxy-2′,3′-didehydrothymidine]
activity against HIV in vitro [9]: potent inhibitor of HIV replication in vitro

OC[C@@H]1CC[C@H](n2cnc3c(O)ncnc32)O1 [ddI, 2′,3′-Dideoxyinosine]
activity against HIV in vitro [9]: inhibit HIV-induced cytopathic effects in vitro; also recorded: significant antiviral activity against HIV in vitro
